{"source": "patent US20120128639A1", "about": "“In Vitro Production Of Oligodendrocytes From Human Umbilical Cord Stem Cells” (UNIVERSITY OF CENTRAL FLORIDA RESEARCH FOUNDATION, INC., priority 2009, published 2012)", "key": {"[1]": {"test_system": "human multipotent progenitor cells (MLPCs) from umbilical cord", "settings": "3D environment; for need of the growth factor for process formation: presence or absence in medium", "experimental": "MLPCs were seeded on DETA-coated glass coverslips (18 mm) at a density of 4×10^3 cells/cm^2 in growth medium. After 3 days, at about 60% confluency, cells were incubated for 24 hours in pre-induction medium, consisting of DMEM, 15% FBS. FGF-2, EGF (20 ng/ml each, R & D Systems, Minneapolis, Minn.) and PDGF-AA (10 ng/ml, Chemicon International, Temecula, Calif.). To initiate differentiation, the pre-induction medium was removed, the cells were washed 2× with Hanks' balanced salts solution (Gibco BRL) and transferred to serum-free differentiation medium.\nConstruction of 3D Environment MLPCs were plated on DETA-coated glass coverslips (18 mm) in growth medium. At about 60% confluence, growth medium was replaced with pre-induction medium. After the medium replacement, another set of coverslips was placed on the top of the cells. Prior to the placement, top coverslips were ethanol sterilized and washed in the pre-induction medium. After 24 hours the pre-induction medium was removed, the cells were washed 2× with Hanks' Balanced Salts Solution and transferred to serum-free differentiation medium.\nPhase-contrast images were taken with a commercial Nikon Coolpix 990 camera using the Zeiss Axiovert S100 microscope. Pictures were analyzed using Scion Image Software (Scion Corp., Frederick, Md.).\nThe morphological and immunocytochemical quantification was performed on undifferentiated stem cells or cells during various differentiation stages. For each coverslip, at least 10 pictures were taken from randomly chosen views under 200× magnification. All the marker-positive cells were counted, as well as the total number of cells in these views. At least three coverslips in each group were quantified and data were expressed as average±standard deviation (SD). Statistical differences between different experimental groups were analyzed by Student's t-test."}, "α1-ARs": {"test_system": "α1-ARs", "assay": "Immunocytochemical analysis of α1-AR expression in MLPCs", "type": "cell-based, human", "settings": "undifferentiated MLPCs; 24 hrs treatment with bFGF alone", "experimental": "(§1) To characterize cells by immunocytochemistry, the top coverslips, if present, were first carefully removed. Cells were then briefly washed with Hanks' balanced salts solution and fixed in 4% paraformaldehyde for about 18 min. Fixed cells were stored in PBS, permeabilized with 0.5% Triton 100× in PBS for 7 min. blocked with 5% donkey serum for 1 hr, followed by incubation with primary antibody overnight at 4° C. Primary antibodies were mouse monoclonal A2B5 (MAB312, 1:250). O4 (MAB345, 1:100). O1 (MAB344, 1:200), MBP (1:25), rabbit polyclonal anti-galactocerebroside (AB142, 1:200), all from Chemicon, mouse monoclonal beta-2-AR (sc-81577, 1:200), rabbit polyclonal beta-1AR (sc-567, 1:250) from Santa Cruz Biotechnology, and alpha-1-AR (ab3462, 1:1000, Abcam Inc. Cambridge, Mass.). Following a PBS washing, cells were incubated with an Alexa Fluor 488-conjugated anti-mouse IgG or Alexa Fluor 488-conjugated anti-rabbit IgG for 2 hours at room temperature. After a PBS washing, the coverslips were mounted with Vectashield mounting medium (H1000, Vector Laboratories, Burlingame, Calif.) onto slides. For visualizing cellular nuclei, the specimens were counterstained with DAPI. Immunoreactivity was observed and analyzed by using an Ultra VIEW™ LCI confocal imaging system (Perkin Elmer)."}, "[2]": {"test_system": "human multipotent progenitor cells (MLPCs) from umbilical cord", "assay": "Immunocytochemical analysis of MLPC differentiation in 3D environment (NE or AR agonists)", "type": "cell-based", "settings": "for cells stained positively for A2B5 / cells stained positively for O1 galactocerebroside / cells stained positively for O4 / cells stained positively for MBP: 30 days of differentiation, 20 μM added daily", "experimental": "To characterize cells by immunocytochemistry, the top coverslips, if present, were first carefully removed. […] Cambridge, Mass.). Following a PBS washing, cells were incubated with an Alexa Fluor 488-conjugated anti-mouse IgG or Alexa Fluor 488-conjugated anti-rabbit IgG for 2 hours at room temperature. After a PBS washing, the coverslips were mounted with Vectashield mounting medium ([…], Vector Laboratories, Burlingame, Calif.) onto slides. For visualizing cellular nuclei, the specimens were counterstained with DAPI. Immunoreactivity was observed and analyzed by using an Ultra VIEWTM LCI confocal imaging system (Perkin Elmer)."}, "[3]": {"test_system": "human multipotent progenitor cells (MLPCs) from umbilical cord", "assay": "Morphological analysis of MLPC differentiation in 2D environment", "type": "cell-based", "settings": "for need of the factor for the desired morphology (omission from differentiation medium): 15 days in differentiation medium", "method": "MLPCs were seeded on DETA-coated glass coverslips (18 mm) at a density of 4×10^3 cells/cm^2 in growth medium. After 3 days, at about 60% confluency, cells were incubated for 24 hours in pre-induction medium, consisting of DMEM, 15% FBS. […] To initiate differentiation, the pre-induction medium was removed, the cells were washed 2× with Hanks' balanced salts solution (Gibco BRL) and transferred to serum-free differentiation medium."}, "[4]": {"test_system": "human multipotent progenitor cells (MLPCs) from umbilical cord", "assay": "Immunocytochemical analysis of MLPC differentiation into oligodendrocyte lineage in 2D environment", "type": "cell-based", "experimental": "as §1"}, "[5]": {"settings": "8 days of differentiation, differentiation medium with 20 μM NE"}}, "note": "“And” between values parts separate entries of the source, which are not always exact repeats. Equal values may be shown once. “Also recorded” adds a separate entry of the source."}
{"compound": "bFGF: growth factor in pre-induction and differentiation medium", "values": [{"measurement": "need of the growth factor for process formation", "setting": "[1]", "value": "not essential"}, {"measurement": "nuclear expression of α1-ARs", "setting": "α1-ARs", "value": "significant increase in staining intensity; also recorded: increase nuclear expression of α1-ARs"}]}
{"compound": "CNC[C@H](O)c1cccc(O)c1", "note": "[phenylephrine]", "values": [{"measurement": "cells with more mature morphology with developed processes", "setting": "[1]; day 30", "value": "10% and 15%"}, {"measurement": "cells that began to develop processes", "setting": "[1]; within 15 days of differentiation", "value": "approximately 40%"}, {"measurement": "cells stained positively for A2B5", "setting": "[2]", "value": "40.5±3.4", "unit": "%"}, {"measurement": "cells stained positively for O1 galactocerebroside", "setting": "[2]", "value": "15.2±1.5", "unit": "%"}, {"measurement": "cells stained positively for O4", "setting": "[2]", "value": "39.8±2.8", "unit": "%"}]}
{"compound": "COC(=O)[C@@]1(O)C[C@H]2O[C@]1(C)n1c3ccccc3c3c4c(c5c6ccccc6n2c5c31)C(=O)NC4", "note": "[K252a]", "values": [{"measurement": "need of the factor for the desired morphology (omission from differentiation medium)", "setting": "[3]", "value": "essential"}]}
{"compound": "NC[C@H](O)c1ccc(O)c(O)c1", "note": "[NE, norepinephrine]", "values": [{"measurement": "survival of differentiated cells in culture", "setting": "[1]", "value": "more than 40 days"}, {"measurement": "MBP staining", "setting": "[2]; 20 days of differentiation", "value": "negative"}, {"measurement": "O1 staining", "setting": "[2]; 20 days of differentiation", "value": "negative"}, {"measurement": "cells stained positively for A2B5", "setting": "[2]", "value": "57.7% and 57.7±3.6%"}, {"measurement": "cells stained positively for MBP", "setting": "[2]", "value": "15.2% and 15.2±0.5%"}, {"measurement": "cells stained positively for O4", "setting": "[2]", "value": "79.6% and 79.6±2.9%"}, {"measurement": "need of the factor for the desired morphology (omission from differentiation medium)", "setting": "[3]", "value": "essential"}, {"measurement": "cells that developed multiple processes", "setting": "[3]; within 8 days of differentiation", "value": "approximately 70%"}, {"measurement": "expression of MBP", "setting": "[4]; 8 days of differentiation", "value": "absent"}, {"measurement": "cells with positive staining for A2B5", "setting": "[4]; [5]", "value": "72.4% and 72.4±3.4%"}, {"measurement": "cells with positive staining for O4", "setting": "[4]; [5]", "value": "69.9% and 69.9±4.9%"}, {"measurement": "cells with positive staining for A2B5", "setting": "[4]; day 15 of differentiation", "value": 70.3, "unit": "%"}, {"measurement": "cells with positive staining for O4", "setting": "[4]; day 15 of differentiation", "value": 69.7, "unit": "%"}, {"measurement": "MBP staining", "setting": "[4]; day 20 of differentiation", "value": "negative"}, {"measurement": "O1 staining", "setting": "[4]; day 20 of differentiation", "value": "negative"}, {"measurement": "cells A2B5 positive", "setting": "[4]; day 20 of differentiation", "value": "35.0% and 35.0±4.8%"}, {"measurement": "cells O4 positive", "setting": "[4]; day 20 of differentiation", "value": "49.7% and 49.7±7.9%"}, {"measurement": "expression of MBP", "setting": "[4]; differentiating cells, time not stated (FIG. 3B)", "value": "absent"}]}
{"compound": "PDGF", "values": [{"measurement": "need of the growth factor for process formation", "setting": "[1]", "value": "required"}]}
{"compound": "CC(C)NCC(O)c1ccc(O)c(O)c1", "note": "(centres unmarked) [isoproterenol]", "values": [{"measurement": "cells displaying a bipolar morphology", "setting": "[1]; daily treatment, first 15 days, unchanged within 30 days", "value": "approximately 60%"}, {"measurement": "cells stained positively for A2B5", "setting": "[2]", "value": "57.9±4.9", "unit": "%"}, {"measurement": "cells stained positively for MBP", "setting": "[2]", "value": "negative"}, {"measurement": "cells stained positively for O1 galactocerebroside", "setting": "[2]", "value": "negative"}, {"measurement": "cells stained positively for O4", "setting": "[2]", "value": "42.5±2.7", "unit": "%"}]}
